The values below come from patent US20100093076A1, “SOLUBLE IL-27 RECEPTOR” (priority 2006, published 2010).

In the experiment the test system is P815 cells. Put plainly: CTL-specific lysis assay with splenocytes of GVHD mice. Conditions: splenocytes of treated GVHD mice against calcein-labeled P815 cells; versus PBS group. It counts as cell-based, mouse. On the procedure: Efficacy of IL-27 antagonists was assayed in a mouse model of acute graft-vs-host disease (Durie et al., J. Clin. Invest. 94:1333-1338, 1994). Parental mice (C57BL/6; n=12) were euthanized, and their spleens were collected. The pooled spleens were smashed using two glass slides to dissociate splenic cells. Lysis buffer was added to the splenocyte suspension to remove red blood cells. The cells were washed in RPMI 1640 (10% FBS) medium and resuspended in an appropriate amount of PBS to make a cell concentration of 300 million cells/ml. Protein treatments were administered by intraperitoneal injection every other day beginning on day-1 and continuing until day 15. Dexamethasone (DEX) was administered by injection daily on days 0 through 6. […] Mice were monitored 3 times a week for changes in body weight and any signs of moribundity. […] Spleens were collected, and a CTL-specific lysis assay using P815 cells was performed as a quantitative measurement of acute GVHD. […]
For CTL assay, P815 cells (a tumor cell line from mice with the same MHC class as DBA2) were labeled with calcein, then splenocytes from each experimental animal were added to the calcein-labeled P815 cells at effector (splenocytes):target (P815) ratios of 100:1, 33:1, and 10:1. Four hours after incubation at 37° C., supernatants were collected and fluorescence was measured (485 nm/535 nm).

As to “human IL-27RA-Fc5: Extracellular domain of human IL27RA (amino acids 1 to 512 of SEQ ID NO:3) fused to Fc5, effector minus human gamma1 Fc; SEQ ID NO:16”, the CTL activity entry was “reduced CTL activity compared to the PBS group”.
